Tests used:
[1] = tested on: U937 cells; assay: Cellular assay in U937 cells to measure activity of RIPK1-inhibitors on cell death (necroptosis); assay type: cell-based; settings: overnight (18 to 24 hrs), 37° C., MTS readout
[2] = target: T1, hRIPK1 (aa 1-375) fusion protein (Homo sapiens, UniProt Q13546); assay: Receptor-Interacting Protein Kinase 1 inhibition, ADP Glo assay (conversion of ATP to ADP due to autophosphorylation); assay type: biochemical; settings: ATP 50 μM, 30 min preincubation, 240 min incubation, room temperature, DMSO 1%
T1 construct: hRIPK1 (aa 1-375) fusion protein
T1 sequence (Q13546 1-375): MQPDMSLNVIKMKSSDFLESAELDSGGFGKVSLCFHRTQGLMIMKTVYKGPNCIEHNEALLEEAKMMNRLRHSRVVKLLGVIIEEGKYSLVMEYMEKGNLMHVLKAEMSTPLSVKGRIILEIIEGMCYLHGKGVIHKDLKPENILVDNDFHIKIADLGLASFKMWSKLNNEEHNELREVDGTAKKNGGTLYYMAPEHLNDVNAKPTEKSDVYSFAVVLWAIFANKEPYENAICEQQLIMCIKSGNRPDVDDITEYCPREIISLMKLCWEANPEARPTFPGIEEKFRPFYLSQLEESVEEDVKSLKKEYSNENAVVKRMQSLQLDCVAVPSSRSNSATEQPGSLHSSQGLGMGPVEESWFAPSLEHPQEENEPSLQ
Procedure, shortened: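 hRIPK1 (aa 1-375) fusion protein (3.6 μg/ml final) was preincubated 30 min at rt with compound (33300-1.69 nM, 1% DMSO), then 50 μM ATP was added for 240 min at rt. ADP from autophosphorylation was measured by ADP-Glo luminescence and curves fitted by nonlinear regression.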

[3] = Homo sapiens, U-937, TNFα/zVAD.fmk induced cell death (necroptosis)
[4] = TNFα/zVAD.fmk induced cell death (necroptosis)

IC50 [2] | Structure (SMILES) | IC50 [1, 3] | IC50 [1, 4]
0.042 µM | NC(=O)c1cccc(OC[C@H]2CC[C@H](C(=O)N3OCC[C@H]3c3cnccn3)CC2)c1 [Compound 100, trans-3-[[4-[(3S)-3-pyrazin-2-ylisoxazolidine-2-carbonyl]cyclohexyl]methoxy]benzamide] | 0.139 µM | 
0.018 µM | N#Cc1cc(F)cc([C@@H]2CCON2C(=O)[C@H]2CC[C@H](COc3ccnc(C#N)c3)CC2)c1 [Compound 93, trans-4-[[4-[(3S)-3-(3-cyano-5-fluoro-phenyl)isoxazolidine-2-carbonyl]cyclohexyl]methoxy]pyridine-2-carbonitrile] | 0.013 µM | 
0.021 µM | NC(=O)c1cc(OCC2CCCC(C(=O)N3OCC[C@H]3c3cc(F)cc(F)c3)CC2)ncn1 (single isomer, unassigned; stereoisomer 3) [Compound 124] |  | 0.081 µM
0.044 µM | N#Cc1cc(F)cc(OC[C@H]2CC[C@H](C(=O)N3OCC[C@H]3c3cc(F)cc(C#N)c3)CC2)c1 [Compound 49, trans-3-((S)-2-(4-((3-cyano-5-fluorophenoxy)methyl)cyclohexane-1-carbonyl)isoxazolidin-3-yl)-5-fluorobenzonitrile] | 0.018 µM | 
0.017 µM | N#Cc1cc(F)cc([C@@H]2CCON2C(=O)C2CCCC(COc3cc(C(N)=O)ncn3)CC2)c1 (single isomer, unassigned; stereoisomer 2) [Compound 127] |  | 0.031 µM
0.056 µM | N#Cc1cc(N[C@H]2C[C@@H](C(=O)N3OCC[C@H]3c3cccc(F)c3)C2)ncn1 [Compound 17, cis-6-((3-((S)-3-(3-fluorophenyl)isoxazolidine-2-carbonyl)cyclobutyl)amino)pyrimidine-4-carbonitrile] | 0.194 µM | 
0.056 µM | N#Cc1cc(OC[C@H]2CC[C@@H](C(=O)N3OCC[C@H]3c3cc(F)cc(F)c3)CC2)ncn1 [Compound 55, cis-6-((4-((S)-3-(3,5-difluorophenyl)isoxazolidine-2-carbonyl)cyclohexyl)methoxy)pyrimidine-4-carbonitrile] | 1.53 µM | 
0.02 µM | CC1(C)OC(=O)N(c2ccc(F)c(OC[C@H]3CC[C@H](C(=O)N4OCC[C@H]4c4cc(F)cc(C#N)c4)CC3)c2)C1=O [Compound 79, trans-3-((S)-2-(4-((5-(5,5-dimethyl-2,4-dioxooxazolidin-3-yl)-2-fluorophenoxy)methyl)cyclohexane-1-carbonyl)isoxazolidin-3-yl)-5-fluorobenzonitrile] | 0.009 µM | 
0.11 µM | Cn1ccc2c(NC[C@H]3CC[C@H](C(=O)N4OCC[C@H]4c4cc(F)cc(C#N)c4)CC3)ncnc21 [Compound 31, trans-3-fluoro-5-((S)-2-(4-(((7-methyl-7H-pyrrolo[2,3-d]pyrimidin-4-yl)amino)methyl)cyclohexane-1-carbonyl)isoxazolidin-3-yl)benzonitrile] | 0.373 µM | 
0.114 µM | NC(=O)c1cc(N[C@H]2CC[C@@H](C(=O)N3OCC[C@H]3c3ccc(Cl)cc3)CC2)ncn1 [Compound 13, cis-6-((4-((S)-3-(4-chlorophenyl)isoxazolidine-2-carbonyl)cyclohexyl)amino)pyrimidine-4-carboxamide] | 0.462 µM | 
0.038 µM | C[C@]1(C(=O)N2OCC[C@H]2c2cc(F)cc(F)c2)C[C@@H](Nc2nccc(C#N)n2)C1 [Compound 5, cis-2-((3-((S)-3-(3,5-difluorophenyl)isoxazolidine-2-carbonyl)-3-methylcyclobutyl)amino)pyrimidine-4-carbonitrile] | 0.075 µM | 
0.027 µM | N#Cc1cc(F)cc(NC[C@H]2CC[C@H](C(=O)N3OCC[C@H]3c3cc(F)cc(C#N)c3)CC2)c1 [Compound 38, trans-3-((S)-2-(4-(((3-cyano-5-fluorophenyl)amino)methyl)cyclohexane-1-carbonyl)isoxazolidin-3-yl)-5-fluorobenzonitrile] | 0.022 µM | 
0.047 µM | Cc1cc(C)n(-c2ccc(OC[C@H]3CC[C@H](C(=O)N4OCC[C@H]4c4cc(F)cc(C#N)c4)CC3)c(F)c2)n1 [Compound 76, trans-3-((S)-2-(4-((4-(3,5-dimethyl-1H-pyrazol-1-yl)-2-fluorophenoxy)methyl)cyclohexane-1-carbonyl)isoxazolidin-3-yl)-5-fluorobenzonitrile] | 0.047 µM | 
0.042 µM | CC1(C)OC(=O)N(c2ccc(F)c(OC[C@H]3CC[C@H](C(=O)N4OCC[C@H]4c4cncc(C#N)c4)CC3)c2)C1=O [Compound 92, trans-5-((S)-2-(4-((5-(5,5-dimethyl-2,4-dioxooxazolidin-3-yl)-2-fluorophenoxy)methyl)cyclohexane-1-carbonyl)isoxazolidin-3-yl)nicotinonitrile] | 0.229 µM | 

Continued, compound first:

Structure (SMILES) | IC50 [2] | IC50 [1, 3] | IC50 [1, 4]
N#Cc1cc(F)cc(N[C@H]2C[C@@H](C(=O)N3OCC[C@H]3c3cncc(F)c3)C2)c1 [Compound 36, cis-3-fluoro-5-((3-((S)-3-(5-fluoropyridin-3-yl)isoxazolidine-2-carbonyl)cyclobutyl)amino)benzonitrile] | 0.042 µM | 0.098 µM | 
Cn1ccn(-c2ccc(OC[C@H]3CC[C@H](C(=O)N4OCC[C@H]4c4cncc(C#N)c4)CC3)c(F)c2)c1=O [Compound 89, trans-5-((S)-2-(4-((2-fluoro-4-(3-methyl-2-oxo-2,3-dihydro-1H-imidazol-1-yl)phenoxy)methyl)cyclohexane-1-carbonyl)isoxazolidin-3-yl)nicotinonitrile] | 0.018 µM | 0.013 µM | 
C[C@]1(C(=O)N2OCC[C@H]2c2cc(F)cc(F)c2)C[C@@H](Nc2ncnc(C(N)=O)c2F)C1 [Compound 11, cis-6-((3-((S)-3-(3,5-difluorophenyl)isoxazolidine-2-carbonyl)-3-methylcyclobutyl)amino)-5-fluoropyrimidine-4-carboxamide] | 0.062 µM | 0.44 µM | 
COC(=O)c1ccnc(N[C@H]2C[C@@H](C(=O)N3OCC[C@H]3c3cc(F)cc(F)c3)C2)n1 [Compound 3, methyl cis-2-((3-((S)-3-(3,5-difluorophenyl)isoxazolidine-2-carbonyl)cyclobutyl)amino)pyrimidine-4-carboxylate] | 0.047 µM | 0.536 µM | 
N#Cc1cc(F)cc([C@@H]2CCON2C(=O)[C@H]2C[C@@H](Nc3ccc(F)c(C#N)c3)C2)c1 [Compound 32, cis-5-((3-((S)-3-(3-cyano-5-fluorophenyl)isoxazolidine-2-carbonyl)cyclobutyl)amino)-2-fluorobenzonitrile] | 0.028 µM | 0.05 µM | 
N#Cc1cc(O[C@H]2C[C@H](C(=O)N3OCC[C@H]3c3cc(F)cc(F)c3)C2)ccc1F [Compound 51, trans-5-(3-((S)-3-(3,5-difluorophenyl)isoxazolidine-2-carbonyl)cyclobutoxy)-2-fluorobenzonitrile] | 0.021 µM | 0.006 µM | 
N#Cc1cccc(OC[C@H]2CC[C@H](C(=O)N3OCC[C@H]3c3cncc(C#N)c3)CC2)c1 [Compound 71, trans-5-((S)-2-(4-((3-cyanophenoxy)methyl)cyclohexane-1-carbonyl)isoxazolidin-3-yl)nicotinonitrile] | 0.014 µM | 0.006 µM | 
N#Cc1cc(NC[C@H]2CC[C@H](C(=O)N3OCC[C@H]3c3ccc(Cl)cc3)CC2)ncn1 [Compound 15, trans-6-(((4-((S)-3-(4-chlorophenyl)isoxazolidine-2-carbonyl)cyclohexyl)methyl)amino)pyrimidine-4-carbonitrile] | 0.009 µM | 0.192 µM | 
N#Cc1cc(F)cc(O[C@H]2C[C@H](C(=O)N3OCC[C@H]3c3cc(F)cc(F)c3)C2)c1 [Compound 50, trans-3-(3-((S)-3-(3,5-difluorophenyl)isoxazolidine-2-carbonyl)cyclobutoxy)-5-fluorobenzonitrile] | 0.025 µM | 0.13 µM | 
O=C([C@H]1C[C@@H](n2cc3cc(F)ccc3n2)C1)N1OCC[C@H]1c1cc(F)cc(F)c1 [Compound 110, cis-[(3S)-3-(3,5-difluorophenyl)isoxazolidin-2-yl]-[3-(5-fluoroindazol-2-yl)cyclobutyl]methanone] | 0.062 µM | 0.097 µM | 
N#Cc1ccc(OC[C@H]2CC[C@H](C(=O)N3OCC[C@H]3c3cncc(C#N)c3)CC2)nc1 [Compound 95, trans-5-((S)-2-(4-(((5-cyanopyridin-2-yl)oxy)methyl)cyclohexane-1-carbonyl)isoxazolidin-3-yl)nicotinonitrile] | 0.015 µM | 0.035 µM | 
O=C1CCC(=O)N1c1ccc(Cl)c(OC[C@H]2CC[C@H](C(=O)N3OCC[C@H]3c3cc(F)cc(F)c3)CC2)c1 [Compound 58, trans-1-(4-chloro-3-((4-((S)-3-(3,5-difluorophenyl)isoxazolidine-2-carbonyl)cyclohexyl)methoxy)phenyl)pyrrolidine-2,5-dione] | 0.044 µM | 0.104 µM | 
N#Cc1cc(F)cc([C@@H]2CCON2C(=O)C2CCC(COc3cc(C(N)=O)ncn3)C2)c1 (single isomer, unassigned) [Compound 115] | 0.053 µM |  | 0.842 µM

— patent publication US20260317312A1, “ISOXAZOLIDINES AS RIPK1 INHIBITORS AND USE THEREOF” (GENZYME CORPORATION, priority 2023, published 2026)
